From patent US20090036444A1, “5-5-Membered fused heterocyclic compound and use thereof as HCV polymerase inhibitor” (priority 2003, published 2009)
Structures can show the parent of a compound that is named as a salt. Where two headings read alike, the source gives them in different places.

Experiments:
[1] = molecular target: T1, HCV polymerase H544 1a 3X (UniProt P27958); experiment: Assay of enzyme (HCV polymerase) inhibitory activity, H544 1a 3X; type: biochemical
T1 construct: fused on or other part: 6 His tag at the C-terminus, for the BK (1b) enzyme

[2] = molecular target: T2, HCV polymerase H544 1b 3X (Hepatitis C virus genotype 1b, UniProt P26663); experiment: Assay of enzyme (HCV polymerase) inhibitory activity, H544 1b 3X; type: biochemical, HCV BK strain
T2 construct: a region encoding NS5B (J Virol 1991 March, 65(3), 1105-13, 544 amino acids after deletion of 47 amino acids on the C-terminal); 6 His (C); made in house; host or cells: Escherichia coli
From the text: The evaluation of the HCV polymerase inhibitory activity of the compound of the present invention is explained in the following. This polymerase is an enzyme coded for by the non-structural protein region called NS5B on the genome RNA of HCV (EMBO J., 15:12-22, 1996).
Using, as a template, a cDNA clone corresponding to the full length genome RNA of HCV BK strain obtained from the blood of a patient with hepatitis C, a region encoding NS5B (J Virol 1991 March, 65(3), 1105-13, 544 amino acids after deletion of 47 amino acids on the C-terminal) was amplified by PCR. The objective gene was prepared by adding a 6 His tag {base pair encoding 6 continuous histidine (His)} to the 3′ end thereof and transformed to Escherichia coli. The Escherichia coli capable of producing the objective protein was cultured. The obtained cells were suspended in a buffer solution and crushed in a microfluidizer. The supernatant was obtained by centrifugation and applied to various column chromatographys {mono-S, Sephacryl S-200 (Pharmacia)}, inclusive of metal chelate chromatography, to give a standard enzyme product.
Using a synthetic primer designed based on the sequence of HCV genomic 3′ untranslated region, a DNA fragment (148 bp) containing polyU and 3′X sequence was entirely synthesized and cloned into plasmid pBluescript SK II (+) (Stratagene). The cDNA encoding full length NS5B, which was prepared in i) above, was digested with restriction enzyme KpnI to give a cDNA fragment containing the nucleotide sequence of from the restriction enzyme cleavage site to the termination codon. This cDNA fragment was inserted into the upstream of 3′ untranslated region of the DNA in pBluescript SK II(+) and ligated. The about 450 bp inserted DNA sequence was used as a template in the preparation of substrate RNA. This plasmid was cleaved immediately after the 3′X sequence, linearized and purified by phenol-chloroform treatment and ethanol precipitation to give DNA.
RNA was synthesized (37° C., 3 hr) by run-off method using this purified DNA as a template, a promoter of pBluescript SK II(+), MEGAscript RNA synthesis kit (Ambion) and T7 RNA polymerase. DNase I was added and the mixture was incubated for 1 hr. The template DNA was removed by decomposition to give a crude RNA product. This crude product was treated with phenol-chloroform and purified by ethanol precipitation to give the objective substrate RNA.
This RNA was applied to formaldehyde denaturation agarose gel electrophoresis to confirm the quality thereof and preserved at −80° C.
A test substance (compound of the present invention) and a reaction mixture (30 μl) having the following composition were reacted at 25° C. for 90 min. 10% Trichloroacetic acid at 4° C. and 1% sodium pyrophosphate solution (150 μl) were added to this reaction mixture to stop the reaction. The reaction mixture was left standing in ice for 15 min to insolubilize RNA. This RNA was trapped on a glass filter (Whatman GF/C and the like) upon filtration by suction. This filter was washed with a solution containing 1% trichloroacetic acid and 0.1% sodium pyrophosphate, washed with 90% ethanol and dried. A liquid scintillation cocktail (Packard) was added and the radioactivity of RNA synthesized by the enzyme reaction was measured on a liquid scintillation counter.
The HCV polymerase inhibitory activity (IC50) of the compound of the present invention was calculated from the values of radioactivity of the enzyme reaction with and without the test substance.
The results are shown in Table 18, wherein each symbol means that IC50 falls within the following range.
Reaction mixture: HCV polymerase (0.5 μg/ml) obtained in i), substrate RNA (5 μg/ml) obtained in ii), ATP (50 μM), GTP (50 μM), CTP (50 μM), UTP (2 μM), [5,6-^3H] UTP (46 Ci/mmol (Amersham), 1 μCi) 20 mM Tris-HCl (pH 7.5), EDTA (1 mM), MgCl2 (5 mM), NaCl (50 mM), DTT (1 mM), BSA (0.01%)

[3] = 25° C., 90 min, [5,6-3H]UTP incorporation, read-out: H544 1a 3X IC50
[4] = read-out: H544 1a 3X IC50, 25° C., 90 min, [5,6-3H]UTP incorporation

T2 sequence (P26663 2420-2963): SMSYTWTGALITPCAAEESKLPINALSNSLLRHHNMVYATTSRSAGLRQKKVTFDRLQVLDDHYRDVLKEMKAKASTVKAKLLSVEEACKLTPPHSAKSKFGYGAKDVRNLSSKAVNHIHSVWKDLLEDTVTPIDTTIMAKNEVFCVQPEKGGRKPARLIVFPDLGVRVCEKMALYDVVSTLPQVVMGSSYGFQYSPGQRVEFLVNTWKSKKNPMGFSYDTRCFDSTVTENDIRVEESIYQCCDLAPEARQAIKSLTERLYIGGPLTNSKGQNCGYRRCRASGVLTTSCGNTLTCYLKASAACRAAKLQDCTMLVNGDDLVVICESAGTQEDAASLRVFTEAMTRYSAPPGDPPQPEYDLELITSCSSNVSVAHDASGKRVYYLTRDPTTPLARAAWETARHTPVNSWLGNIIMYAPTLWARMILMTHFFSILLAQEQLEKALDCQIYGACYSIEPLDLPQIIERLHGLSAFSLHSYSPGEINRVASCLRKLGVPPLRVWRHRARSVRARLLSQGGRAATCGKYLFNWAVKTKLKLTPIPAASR

Structure (SMILES)	IC50 [1, 3]	IC50 [2]	IC50 [1, 4]
Cn1c(-c2ccc(OCc3ccccc3N3CCOCC3)cc2)c(C2CCCCC2)c2sc(C(=O)O)cc21 [Example 31, 6-cyclohexyl-4-methyl-5-[4-(2-morpholinobenzyloxy)phenyl]-4H-thieno[3,2-b]pyrrole-2-carboxylic acid hydrochloride]	< 100 nM	< 100 nM	
CN(C)CC(=O)Nc1ccc(N2CCOCC2)c(COc2ccc(-c3c(C4CCCCC4)c4sc(C(=O)O)cc4n3C)cc2)c1 [Example 40, 6-cyclohexyl-5-{4-[5-(2-dimethylaminoacetylamino)-2-morpholinobenzyloxy]phenyl}-4-methyl-4H-thieno[3,2-b]pyrrole-2-carboxylic acid dihydrochloride]		< 100 nM	< 100 nM
CN(C)C(=O)Cn1c(-c2ccc(OC3CCN(C(=O)OC(C)(C)C)CC3)cc2)c(C2CCCCC2)c2sc(C(=O)O)cc21 [Example 39, 5-[4-(1-tert-butoxycarbonylpiperidin-4-yloxy)phenyl]-6-cyclohexyl-4-dimethylcarbamoylmethyl-4H-thieno[3,2-b]pyrrole-2-carboxylic acid]	100 to 1000 nM	< 100 nM	
CN(C)CCn1c(-c2ccc(OCc3cc(S(C)(=O)=O)ccc3N3CCOCC3)cc2)c(C2CCCCC2)c2sc(C(=O)O)cc21 [Example 56, 6-cyclohexyl-4-(2-dimethylaminoethyl)-5-[4-(5-methanesulfonyl-2-morpholinobenzyloxy)phenyl]-4H-thieno[3,2-b]pyrrole-2-carboxylic acid dihydrochloride]		< 100 nM	< 100 nM
O=C(O)c1cc2c(s1)c(C1CCCCC1)c(-c1ccc(OCc3ccccc3)cc1)n2CC1CCCCC1 [Example 48, 5-(4-benzyloxyphenyl)-6-cyclohexyl-4-cyclohexylmethyl-4H-thieno[3,2-b]pyrrole-2-carboxylic acid]	100 to 1000 nM	100 to 1000 nM	
O=C(O)c1cc2c(s1)c(C1CCCCC1)c(-c1ccc(OCc3ccccc3)cc1)n2Cc1ccccc1 [Example 45, 4-benzyl-5-(4-benzyloxyphenyl)-6-cyclohexyl-4H-thieno[3,2-b]pyrrole-2-carboxylic acid]	100 to 1000 nM	100 to 1000 nM	
O=C(O)c1cc2nc(-c3ccc(OCc4cc(N5CCCC5=O)ccc4N4CCOCC4)cc3)n(C3CCCCC3)c2s1 [Example 5, 3-cyclohexyl-2-{4-[2-morpholino-5-(2-oxopyrrolidin-1-yl)benzyloxy]phenyl}-3H-thieno[2,3-d]imidazole-5-carboxylic acid]	100 to 1000 nM	100 to 1000 nM	
COCCn1c(-c2ccc(OCc3ccccc3)cc2)c(C2CCCCC2)c2sc(C(=O)O)cc21 [Example 49, 5-(4-benzyloxyphenyl)-6-cyclohexyl-4-(2-methoxyethyl)-4H-thieno[3,2-b]pyrrole-2-carboxylic acid]	100 to 1000 nM	100 to 1000 nM	
